EC50 data for eleven compounds are collected here from US9334279B2, “Hepatitis C virus inhibitors” (BRISTOL-MYERS SQUIBB COMPANY, priority 2012, dated 2016).

For one assay, the system named is HCV GT1a(H77) replicon. Put plainly: HCV replicon luciferase reporter assay, genotype 1a. It counts as cell-based, HCV genotype 1a. The following applies: Hepatitis C virus, 72 h, HUH-7 cells, Renilla luciferase, 3 days incubation, read-out: LE_1a (EC50, range). An outline of the steps: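 Huh-7 cells stably carried a GT1a(H77) Renilla luciferase replicon with NS3 P1496L and NS5A S2204I adaptive mutations. Luminescence was read after 2 h with 7.5 μM EnduRen, and EC50 came from a four-parameter logistic fit; CC50 came from multiplexed Cell Titer-Blue (8 h).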

For the next assay, the system named is HCV GT1b(Con1) replicon. Kind of assay: HCV replicon luciferase reporter assay, genotype 1b. The format is cell-based, HCV genotype 1b. The following applies: Hepatitis C virus, 72 h, HUH-7 cells, Renilla luciferase, 3 days incubation, read-out: LE_1b (EC50, range). An outline of the steps: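 HUH-7 cells stably carrying a Con1 GT1b replicon with Renilla luciferase and Ser1179Ile adaptive mutation; 3.0×10^3 cells/well, DMEM 4% FCS, 0.5% DMSO, twenty-point 3-fold titration, 3 days 37 °C. Luminescence 2 h after 7.5 μM EnduRen; EC50 by four-parameter logistic fit. CC50 from multiplexed Cell Titer-Blue fluorescence (8 h).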

In the case of `CC(C)Oc1ccc(-c2cc(O[C@@H]3C[C@H]4C(=O)N[C@]5(C(=O)NS(=O)(=O)C6(C)CC6)C[C@H]5/C=C\CC[C@@H](C)C[C@@H](C)[C@H](NC(=O)OC5(C(F)(F)F)CCCOC5)C(=O)N4C3)cc(-c3nccs3)n2)cc1` (stereo partly drawn) [Compound 1041, 3-(trifluoromethyl)tetrahydro-2H-pyran-3-yl ((2R,6S,7R,9R,13aS,14aR,16aS,Z)-2-((2-(4-isopropoxyphenyl)-6-(thiazol-2-yl)pyridin-4-yl)oxy)-7,9-dimethyl-14a-(((1-methylcyclopropyl)sulfonyl)carbamoyl)-5,16-dioxo-1,2,3,5,6,7,8,9,10,11,13a,14,14a,15,16,16a-hexadecahydrocyclopropa[e]pyrrolo[1,2-a][1,4]diazacyclopentadecin-6-yl)carbamate], the EC50 in the assay on HCV GT1a(H77) replicon and in the assay with HCV GT1b(Con1) replicon was 0.51 to 1 nM each time.

Take `Cc1cnc(-c2cc(O[C@@H]3C[C@H]4C(=O)N[C@]5(C(=O)NS(=O)(=O)C6(C)CC6)C[C@H]5/C=C\CC[C@@H](C)C[C@@H](C)[C@H](NC(=O)OC(C)(C)C(F)(F)F)C(=O)N4C3)ccn2)s1` [Compound 1043, 1,1,1-trifluoro-2-methylpropan-2-yl ((2R,6S,7R,9R,13aS,14aR,16aS,Z)-7,9-dimethyl-14a-(((1-methylcyclopropyl)sulfonyl)carbamoyl)-2-((2-(5-methylthiazol-2-yl)pyridin-4-yl)oxy)-5,16-dioxo-1,2,3,5,6,7,8,9,10,11,13a,14,14a,15,16,16a-hexadecahydrocyclopropa[e]pyrrolo[1,2-a][1,4]diazacyclopentadecin-6-yl)carbamate]: the 50% effective concentration (EC50) in the assay on HCV GT1a(H77) replicon lay within 0.51 to 1 nM; in the assay with HCV GT1b(Con1) replicon it was 0.1 to 0.5 nM.

`Cc1cnc(-c2cc(O[C@@H]3C[C@H]4C(=O)N[C@]5(C(=O)NS(=O)(=O)C6(C)CC6)C[C@H]5/C=C\CC[C@@H](C)C[C@@H](C)[C@H](NC(=O)OC5(C(F)(F)F)CCCOC5)C(=O)N4C3)ccn2)s1` (stereo partly drawn) [Compound 1044, 3-(trifluoromethyl)tetrahydro-2H-pyran-3-yl ((2R,6S,7R,9R,13aS,14aR,16aS,Z)-7,9-dimethyl-14a-(((1-methylcyclopropyl)sulfonyl)carbamoyl)-2-((2-(5-methylthiazol-2-yl)pyridin-4-yl)oxy)-5,16-dioxo-1,2,3,5,6,7,8,9,10,11,13a,14,14a,15,16,16a-hexadecahydrocyclopropa[e]pyrrolo[1,2-a][1,4]diazacyclopentadecin-6-yl)carbamate]: the EC50 with HCV GT1a(H77) replicon was 1.01 to 5 nM; in the assay with HCV GT1b(Con1) replicon, 0.51 to 1 nM.

For the compound `Cc1csc(-c2cc(O[C@@H]3C[C@H]4C(=O)N[C@]5(C(=O)NS(=O)(=O)C6(C)CC6)C[C@H]5/C=C\CC[C@@H](C)C[C@@H](C)[C@H](NC(=O)OC(C)(C)C(F)(F)F)C(=O)N4C3)ccn2)n1` [Compound 1045, 1,1,1-trifluoro-2-methylpropan-2-yl ((2R,6S,7R,9R,13aS,14aR,16aS,Z)-7,9-dimethyl-14a-(((1-methylcyclopropyl)sulfonyl)carbamoyl)-2-((2-(4-methylthiazol-2-yl)pyridin-4-yl)oxy)-5,16-dioxo-1,2,3,5,6,7,8,9,10,11,13a,14,14a,15,16,16a-hexadecahydrocyclopropa[e]pyrrolo[1,2-a][1,4]diazacyclopentadecin-6-yl)carbamate], the EC50 in the assay with HCV GT1a(H77) replicon was 1.01 to 5 nM; in the assay on HCV GT1b(Con1) replicon it was 0.1 to 0.5 nM.

`CC(C)Oc1ccc(-c2cc(O[C@@H]3C[C@H]4C(=O)N[C@]5(C(=O)NS(=O)(=O)C6(C)CC6)C[C@H]5/C=C\CC[C@@H](C)C[C@@H](C)[C@H](NC(=O)OC(C)(C)C(F)(F)F)C(=O)N4C3)cc(-c3nccs3)n2)cn1` [Compound 1046, 1,1,1-trifluoro-2-methylpropan-2-yl ((2R,6S,7R,9R,13aS,14aR,16aS,Z)-2-((6′-isopropoxy-6-(thiazol-2-yl)-[2,3′-bipyridin]-4-yl)oxy)-7,9-dimethyl-14a-(((1-methylcyclopropyl)sulfonyl)carbamoyl)-5,16-dioxo-1,2,3,5,6,7,8,9,10,11,13a,14,14a,15,16,16a-hexadecahydrocyclopropa[e]pyrrolo[1,2-a][1,4]diazacyclopentadecin-6-yl)carbamate]: the EC50 in the assay on HCV GT1a(H77) replicon and in the assay with HCV GT1b(Con1) replicon was 1.01 to 5 nM throughout.

`CC(C)Oc1ccc(-c2cc(O[C@@H]3C[C@H]4C(=O)N[C@]5(C(=O)NS(=O)(=O)C6(C)CC6)C[C@H]5/C=C\CC[C@@H](C)C[C@@H](C)[C@H](NC(=O)OC5(C(F)(F)F)CCCOC5)C(=O)N4C3)cc(-c3nccs3)n2)cn1` (stereo partly drawn) [Compound 1047, 3-(trifluoromethyl)tetrahydro-2H-pyran-3-yl ((2R,6S,7R,9R,13aS,14aR,16aS,Z)-2-((6′-isopropoxy-6-(thiazol-2-yl)-[2,3′-bipyridin]-4-yl)oxy)-7,9-dimethyl-14a-(((1-methylcyclopropyl)sulfonyl)carbamoyl)-5,16-dioxo-1,2,3,5,6,7,8,9,10,11,13a,14,14a,15,16,16a-hexadecahydrocyclopropa[e]pyrrolo[1,2-a][1,4]diazacyclopentadecin-6-yl)carbamate]: the results for the EC50 with HCV GT1a(H77) replicon and in the assay on HCV GT1b(Con1) replicon were 1.01 to 5 nM and 0.51 to 1 nM, respectively.

In the case of `CC(C)Oc1ccc(-c2cc(O[C@@H]3C[C@H]4C(=O)N[C@]5(C(=O)NS(=O)(=O)C6(C)CC6)C[C@H]5/C=C\CC[C@@H](C)C[C@@H](C)[C@H](NC(=O)OC5(C(F)(F)F)CCCOC5)C(=O)N4C3)cc(-c3ncccn3)n2)cc1` (stereo partly drawn) [Compound 1048, 3-(trifluoromethyl)tetrahydro-2H-pyran-3-yl ((2R,6S,7R,9R,13aS,14aR,16aS,Z)-2-((2-(4-isopropoxyphenyl)-6-(pyrimidin-2-yl)pyridin-4-yl)oxy)-7,9-dimethyl-14a-(((1-methylcyclopropyl)sulfonyl)carbamoyl)-5,16-dioxo-1,2,3,5,6,7,8,9,10,11,13a,14,14a,15,16,16a-hexadecahydrocyclopropa[e]pyrrolo[1,2-a][1,4]diazacyclopentadecin-6-yl)carbamate], the EC50 with HCV GT1a(H77) replicon and with HCV GT1b(Con1) replicon was 1.01 to 5 nM throughout.

In the case of `C[C@@H]1CC/C=C\[C@@H]2C[C@@]2(C(=O)NS(=O)(=O)C2(C)CC2)NC(=O)[C@@H]2C[C@@H](Oc3cc(-c4cccnc4)nc(-c4nccs4)c3)CN2C(=O)[C@@H](NC(=O)OC2(C(F)(F)F)CCCOC2)[C@H](C)C1` (stereo partly drawn) [Compound 1049, 3-(trifluoromethyl)tetrahydro-2H-pyran-3-yl ((2R,6S,7R,9R,13aS,14aR,16aS,Z)-7,9-dimethyl-14a-(((1-methylcyclopropyl)sulfonyl)carbamoyl)-5,16-dioxo-2-((6-(thiazol-2-yl)-[2,3′-bipyridin]-4-yl)oxy)-1,2,3,5,6,7,8,9,10,11,13a,14,14a,15,16,16a-hexadecahydrocyclopropa[e]pyrrolo[1,2-a][1,4]diazacyclopentadecin-6-yl)carbamate], the figures for the EC50 with HCV GT1a(H77) replicon and with HCV GT1b(Con1) replicon were 5.01 to 35 nM and 1.01 to 5 nM, respectively.

Turning to `C[C@@H]1CC/C=C\[C@@H]2C[C@@]2(C(=O)NS(=O)(=O)C2(C)CC2)NC(=O)[C@@H]2C[C@@H](Oc3cc(-c4cccnc4)nc(-c4nccs4)c3)CN2C(=O)[C@@H](NC(=O)OC(C)(C)C(F)(F)F)[C@H](C)C1` [Compound 1050, 1,1,1-trifluoro-2-methylpropan-2-yl ((2R,6S,7R,9R,13aS,14aR,16aS,Z)-7,9-dimethyl-14a-(((1-methylcyclopropyl)sulfonyl)carbamoyl)-5,16-dioxo-2-((6-(thiazol-2-yl)-[2,3′-bipyridin]-4-yl)oxy)-1,2,3,5,6,7,8,9,10,11,13a,14,14a,15,16,16a-hexadecahydrocyclopropa[e]pyrrolo[1,2-a][1,4]diazacyclopentadecin-6-yl)carbamate], the EC50 with HCV GT1a(H77) replicon was in the range of 1.01 to 5 nM; in the assay with HCV GT1b(Con1) replicon, 0.1 to 0.5 nM.

`CC(C)Oc1ccc(-c2cc(O[C@@H]3C[C@H]4C(=O)N[C@]5(C(=O)NS(=O)(=O)C6(C)CC6)C[C@H]5/C=C\CC[C@@H](C)C[C@@H](C)[C@H](NC(=O)OC5(C(F)(F)F)CCCOC5)C(=O)N4C3)cc(-c3ccccn3)n2)cc1` (stereo partly drawn) [Compound 1051, 3-(trifluoromethyl)tetrahydro-2H-pyran-3-yl ((2R,6S,7R,9R,13aS,14aR,16aS,Z)-2-((6-(4-isopropoxyphenyl)-[2,2′-bipyridin]-4-yl)oxy)-7,9-dimethyl-14a-(((1-methylcyclopropyl)sulfonyl)carbamoyl)-5,16-dioxo-1,2,3,5,6,7,8,9,10,11,13a,14,14a,15,16,16a-hexadecahydrocyclopropa[e]pyrrolo[1,2-a][1,4]diazacyclopentadecin-6-yl)carbamate]: the EC50 fell in the range of 1.01 to 5 nM with HCV GT1a(H77) replicon and 0.1 to 0.5 nM in the assay on HCV GT1b(Con1) replicon.

Turning to `CC(C)Oc1ccc(-c2cc(O[C@@H]3C[C@H]4C(=O)N[C@]5(C(=O)NS(=O)(=O)C6(C)CC6)C[C@H]5/C=C\CC[C@@H](C)C[C@@H](C)[C@H](NC(=O)OC5(C(F)(F)F)CCCOC5)C(=O)N4C3)cc(-c3cscn3)n2)cc1` (stereo partly drawn) [Compound 1052, 3-(trifluoromethyl)tetrahydro-2H-pyran-3-yl ((2R,6S,7R,9R,13aS,14aR,16aS,Z)-2-((2-(4-isopropoxyphenyl)-6-(thiazol-4-yl)pyridin-4-yl)oxy)-7,9-dimethyl-14a-(((1-methylcyclopropyl)sulfonyl)carbamoyl)-5,16-dioxo-1,2,3,5,6,7,8,9,10,11,13a,14,14a,15,16,16a-hexadecahydrocyclopropa[e]pyrrolo[1,2-a][1,4]diazacyclopentadecin-6-yl)carbamate], the EC50 in the assay with HCV GT1a(H77) replicon fell in the range of 0.1 to 0.5 nM; in the assay on HCV GT1b(Con1) replicon it was 0.51 to 1 nM.
